Patent US12134663B2, “Cationic peptides for activating Lck” (Interk Peptide Therapeutics Limited, priority 2018, dated 2024)
Where no end group is shown, it is not given here. [ ]: non-standard residue; d: D form.

How the values were obtained:
wild-type Jurkat cells [1] = assay: IL-2R alpha (CD25) expression in PMA/ionomycin stimulated Jurkat cells; type: cell-based, human; settings: PMA and ionomycin stimulated; peptide 2.5 μM, 96 hours; cell lysates
Description: In brief, wild-type Jurkat cells (1×10^6 cells) were cultured in standard RPMI medium and 10% foetal calf serum as above and either not stimulated or stimulated with PMA (50 ng/ml) and ionomycin for a period of 96 hours. Cells were exposed to the test peptides (2.5 μM conc.) listed in FIG. 10 for the entire 96 hour culture period, and IL-2R alpha levels were determined in cell lysates using a standard commercial ELISA format as described above.

wild-type Jurkat cells [2] = assay: IL-12 secretion in stimulated wild-type Jurkat cells (ELISA); type: cell-based, human; settings: biotinylated anti-CD3, anti-CD28, avidin; 48 h exposure
Description: (§1) The ability of Lck activating polypeptides to alter IL-12 secretion was examined. In brief, wild-type Jurkat cells (an immortalised line of human T lymphocyte cells) were stimulated by exposure to biotinylated anti-CD3 antibody in the presence of anti-CD28 antibody and avidin. During the culture period (48 hours) cells were exposed to test polypeptides. Cell supernatant was assayed for IL-12 at the end of 48 hours using a standard commercially available ELISA kit as described above.
In brief, cells were seeded at 1 million cells per well (12 well plate, 2 mL volume) and stimulated with Biotin-CD3, CD28, and avidin (5:5:1.25 μg). The cells were then treated with IK14800 (SEQ ID NO: 24), IK15800 (SEQ ID NO: 58), IK14804 (SEQ ID NO: 65) and IK15804 (SEQ ID NO: 66). The cells were then incubated for 48 hours at 37° C. The supernatants (100 uL, n=3), were then analyzed for IL-12 content.
In brief, wild-type Jurkat cells (am immortalised line of human T lymphocyte cells) were stimulated by exposure to biotinylated anti-CD3 antibody in the presence of anti-CD28 antibody and avidin. Cells were seeded at 1 million cells per well (12 well plate, 2 mL volume) and stimulated with Biotin-anti-CD3, anti-CD28, and avidin (5:5:1.25 μg). Cells were treated with the test peptides and then incubated for 48 hours at 37° C. The supernatants (100 ul, n=3), were then analysed for IL-2 and IL-12 content. […]

wild-type Jurkat cells [3] = assay: IL-2 secretion in stimulated wild-type Jurkat cells (ELISA); type: cell-based, human; settings: biotinylated anti-CD3, anti-CD28, avidin; 48 h exposure
Description: as §1, with “In” for “The ability of Lck activating polypeptides to alter IL-12 secretion was examined. In”, “(48 hours or 72” for “(48”, “IL-2” for “IL-12”, “48 or 72” for “48”
In brief, cells were seeded at 1 million cells per well (12 well plate, 2 mL volume) and stimulated with Biotin-CD3, CD28, and avidin (5:5:1.25 μg). The cells were then treated with IK14804, and then incubated for 48 hours at 37° C. The supernatant (100 uL, n=3), was then analyzed for IL-2 content.
In brief, wild-type Jurkat cells (am immortalised line of human T lymphocyte cells) were stimulated by exposure to biotinylated anti-CD3 antibody in the presence of anti-CD28 antibody and avidin. Cells were seeded at 1 million cells per well (12 well plate, 2 mL volume) and stimulated with Biotin-anti-CD3, anti-CD28, and avidin (5:5:1.25 μg). Cells were treated with the test peptides and then incubated for 48 hours at 37° C. The supernatants (100 ul, n=3), were then analysed for IL-2 and IL-12 content. During the culture period (48 hours) cells were exposed to test polypeptide RSKAKNPLYR-(2Adod)4-NH2 (SEQ ID NO: 128). Cell supernatant was assayed for IL-2 and IL-12 at the end of 48 hours using standard commercially available ELISA kit as described above.

[4] = test system: isolated human CD4+ T cells; assay: IL-2 secretion from isolated stimulated CD4+ T cells; type: cell-based; settings: anti-CD3 anti-CD28 Dynabeads, 0-1.25 μM, 24 hours; data not shown
Description: In brief, CD4+ and CD8+ T cells were isolated and immuno-magnetically separated from healthy human PBMCs. Levels of IL-2 were examined following anti-CD3 and anti-CD28 stimulation for 48 hours in the presence the Lck activating fusion polypeptide RSKAKNPLY-RRRRRRRRR (SEQ ID NO: 24).
The effect of Lck activating polypeptides on IL-2 secretion from CD4+ T cells in a stimulated CD4+ T cell assay was also examined. In brief, Isolated CD4+ T cells were stimulated with anti-CD3 anti-CD28 Dynabeads™ and cultured together with the Lck activating polypeptides RRRRRRRRR (SEQ ID NO: 6, “IK00900”) and RSKAKNPLY-RRRRRRRRR (SEQ ID NO: 24, “IK14800”), over a 5-concentration range plus vehicle control (0-1.25 μM) for 24 hours after which supernatants were assessed for IL-2 and IFN-γ by ELISA.

[5] = test system: anti-CD3 stimulated PBMCs; assay: IL-12p70 secretion in anti-CD3 stimulated PBMCs; type: cell-based, human; settings: 24 hours
Description: The ability of Lck activating polypeptides to alter IL-12 (IL-12p70) secretion was examined further. In brief, anti-CD3 stimulated PBMCs were cultured together with the Lck activating polypeptides RVKVKVVVV-RRRRRRRRR (SEQ ID NO: 58, “IK15800”), RSKAKNPLY-RRRRRRRRR (SEQ ID NO: 24, “IK14800”), and RVKVKVVVV-RRRRRRRRR (SEQ ID NO: 58) and RSKAKNPLY-RRRRRRRRR (SEQ ID NO: 24) comprising only D amino acids (SEQ ID NO: 111, “IKD15800”, and SEQ ID NO: 129, “IKD14800”, respectively), in the presence and absence of anti-CD40L blocking antibody for 24 hours. Supernatants were assessed for IL-12p70 levels by ELISA.
The ability of Lck activating polypeptides to alter IL-12 (IL-12p70) secretion was examined relative to no peptide. In brief, PBMCs were cultured together with anti-CD3 (1 ug/ml) and the Lck activating polypeptide RSKAKNPLY-RRRRRRRRR (SEQ ID NO: 24) or RVKVKVVVV-RRRRRRRRR (SEQ ID NO: 58) for 24 or 72 hours. Supernatants were assessed for IL-12p70 levels by ELISA.

isolated CD4+ T cells = assay: IL-21R (CD360) expression in stimulated CD4+ T cell assay; type: cell-based, human; settings: anti-CD3 anti-CD28 Dynabeads; data not shown
Description: The effect of Lck activating polypeptides on IL-21R (CD360) expression on CD4+ T cells in a stimulated CD4+ T cell assay was examined. In brief, Isolated CD4+ T cells were stimulated with anti-CD3 anti-CD28 Dynabeads™ and cultured together with the Lck activating polypeptides RRRRRRRRR (SEQ ID NO: 6) and RSKAKNPLY-RRRRRRRRR (SEQ ID NO: 24), after which cells were assessed for IL-21R expression by flow cytometry.

human PBMCs = assay: IFN-γ secretion by anti-CD3 stimulated PBMCs; type: cell-based; settings: 48 hours; data not shown
Description: The ability of Lck activating polypeptides to alter IFN-γ secretion by human PBMCs was examined. In brief, anti-CD3 stimulated PBMCs were cultured together with the Lck activating polypeptides RRRRRRRRR (SEQ ID NO: 6), RVKVKVVVV-RRRRRRRRR (SEQ ID NO: 58) and RSKAKNPLY-RRRRRRRRR (SEQ ID NO: 24) for 48 hours after which supernatants were collected and assessed for IFN-γ by ELISA.

[6] = test system: isolated human CD4+ T cells; assay: IFN-γ secretion in stimulated CD4+ T cell assay; type: cell-based; settings: anti-CD3 anti-CD28 Dynabeads, 24 hours
Description: (§2) The ability of Lck activating polypeptides to alter IFN-γ secretion by isolated human CD4+ T cells in a stimulated CD4+ T cell assay was also examined. In brief, Isolated CD4+ T cells were stimulated with anti-CD3 anti-CD28 Dynabeads™ and cultured together with the Lck activating polypeptides RRRRRRRRR (SEQ ID NO: 6, IK00900) and RSKAKNPLY-RRRRRRRRR (SEQ ID NO: 24, IK14800) for 24 hours after which supernatants were assessed for IFN-γ by ELISA.
as §2, with “polypeptides comprising D amino acids” for “polypeptides”, “polypeptide” for “polypeptides RRRRRRRRR (SEQ ID NO: 6, IK00900) and”, “IK14800), or the Lck activating polypeptide RSKAKNPLY-RRRRRRRRR (SEQ ID NO: 24) comprising only D amino acids (SEQ ID NO: 129, IKD14800),” for “IK14800)”

[7] = test system: isolated human CD8+ T cells; assay: IFN-γ secretion in stimulated CD8+ T cell assay; type: cell-based; settings: anti-CD3 anti-CD28 Dynabeads, 24 hours
Description: as §2, with “CD8+” for “CD4+”, “was” for “was also”
In brief, Isolated CD8+ T cells were stimulated with anti-CD3 anti-CD28 Dynabeads™ and cultured together with the Lck activating polypeptide RSKAKNPLY-RRRRRRRRR (SEQ ID NO: 24), comprising only D amino acids (SEQ ID NO: 129, IKD14800), for 24 hours after which supernatants were assessed for IFN-γ by ELISA.

CD4+ T cells = assay: IL-21 production by CD4+ T cells; type: cell-based; settings: anti-CD3 anti-CD28, 48 hr; detected in one donor only
Description: In brief, CD4+ T cells were isolated and cultured in the presence of anti-CD3 anti-CD28 stimulation and RSKAKNPLY-RRRRRRRRR (SEQ ID NO: 24) for 24 hr or 48 hr. At the end of culture, supernatants were assessed for IL-21 by ELISA.

“RSKAKNPLY-RRRRRRRRR-HHHHHHHHHHHH (RSKAKNPLYRRRRRRRRRHHHHHHHHHHHH) [IK14820]” was tested, and the “IL-2R alpha (CD25) expression” value (wild-type Jurkat cells [1]) was “increased”.

For “rskaknply ([dR][dS][dK][dA][dK][dN][dP][dL][dY]) [IKD94000]”, the “IL-12 secretion relative to control” value (wild-type Jurkat cells [2]) was “increase IL-12 secretion”.

With “HHHHH-RSKAKNPLY-RRRRRRRRR (HHHHHRSKAKNPLYRRRRRRRRR) [IK11480]” the “IL-2R alpha (CD25) expression” value (wild-type Jurkat cells [1]) was “increased”.

In the case of RRRRRRRRR [IK00900], the “IL-2 secretion relative to control” value (wild-type Jurkat cells [3]) is reported as “induces IL-2 secretion”, the “IL-2 secretion relative to control” value [4] is reported as “induce IL-2 secretion” and the “IL-12 secretion relative to control” value (wild-type Jurkat cells [2]) is reported as “induced IL-12 secretion”. The “IL-12 (IL-12p70) secretion relative to cultures with anti-CD40L blocking antibody” value [5] was “induced IL-12 secretion”, the IL-21R expression (isolated CD4+ T cells) was “do not increase IL-21R expression” and the “IFN-γ secretion relative to no peptide control” value (human PBMCs) was “induce IFN-γ secretion”. For the same substance, the “IFN-γ secretion relative to no peptide control” value [6] was “induced IFN-γ secretion” and the “IFN-γ secretion relative to no peptide control” value [7] was “induced IFN-γ secretion”.

For “RSKAKNPLY-RRRRRRRRRR (RSKAKNPLYRRRRRRRRRR) [IK14900]”, the “IL-2R alpha (CD25) expression” value (wild-type Jurkat cells [1]) was “increased”.

In the case of “IL-6: control in FIG. 28 showing boost to IL-21 secretion”, the IL-21 production (CD4+ T cells) is reported as “boost to IL-21 secretion”.
